Holding throughout (experiment): MIC determination in BHI broth microdilution
Type in all cases: cell-based
For orientation: Dilution methods test growth across graded concentrations, often in twofold steps.

For one assay, the system named is E. faecalis ATCC 29212. How it is done: (§1) The MICs of the test compounds were determined using bacteria grown in brain heart infusion media (BHI) supplemented with 0.1% casamino acids. Logarithmically growing cells were diluted to approximately 5×10^5 CFU/ml and subjected to test compounds solubilized and serially diluted with DMSO. […] After 18 hours at 37° C., the OD600 was determined by reading the ninety-six well microtiter plates on a microplate reader. For a given concentration, an MIC determination was made if: […]

The test system of a further assay is E. faecalis CL4877. Here is the method: as §1
The test system of a further assay is E. faecium ATCC 49624. How it is done: as §1
A further assay has as its system E. faecium CL4931. How it is done:
as §1

The subject of another assay is S. aureus ATCC29213. How it is done:
as §1

In the next assay the test system is E. coli BAS 849. To be noted: E. coli BAS849; BHI with 0.1% casamino acids, 18 hours at 37° C., OD600 ≧90% inhibition. How it is done:
(§2) In the Table below, MIC (minimum inhibitory concentration) values of certain compounds of the present invention are provided for the bacterial strains E. faecalis ATCC 29212; E. faecalis CL4877; E. faecium ATCC 49624; E. faecium CL4931; S. aures ATCC 29213; S. aureus ATCC 33591; and E. coli BAS 849. The MICs of the test compounds were determined using bacteria grown in brain heart infusion media (BHI) supplemented with 0.1% casamino acids. Logarithmically growing cells were diluted to approximately 5×10^5 CFU/ml and subjected to test compounds solubilized and serially diluted with DMSO. A 5% final DMSO concentration had no effect on cell viability or killing. After 18 hours at 37° C., the OD600 was determined by reading the ninety-six well microtiter plates on a microplate reader. For a given concentration, an MIC determination was made if: […]

The next assay relates to S. aureus ATCC 33591. Here is the method:
as §2

The mark [1] stands for this setting: E. faecalis ATCC29212, BHI with 0.1% casamino acids, 18 hours at 37° C., OD600 ≧90% inhibition.
Where [2] appears, read: E. faecalis CL4877, BHI with 0.1% casamino acids, 18 hours at 37° C., OD600 ≧90% inhibition.
[3] abbreviates: E. faecium ATCC49624, BHI with 0.1% casamino acids, 18 hours at 37° C., OD600 ≧90% inhibition.
[4] abbreviates: E. faecium CL4931, BHI with 0.1% casamino acids, 18 hours at 37° C., OD600 ≧90% inhibition.
The mark [5] stands for this setting: S. aureus ATCC29213, BHI with 0.1% casamino acids, 18 hours at 37° C., OD600 ≧90% inhibition.
Setting [6] is: S. aureus ATCC33591, BHI with 0.1% casamino acids, 18 hours at 37° C., OD600 ≧90% inhibition.
The mark [7] stands for this setting: Enterococcus faecalis, ATCC29212, 18 h, read-out: MIC.
[8] abbreviates: Enterococcus faecalis, CL4877, 18 h, read-out: MIC.
[9] abbreviates: Enterococcus faecium, ATCC49624, 18 h, read-out: MIC.
[10] abbreviates: Enterococcus faecium, CL4931, 18 h, read-out: MIC.
Setting [11] is: Staphylococcus aureus, ATCC29213, 18 h, read-out: MIC.
Setting [12] is: Staphylococcus aureus, ATCC33591, 18 h.
[13] abbreviates: Enterococcus faecalis, ATCC29212, 18 h.
Setting [14] is: Enterococcus faecalis, CL4877, 18 h.
The mark [15] stands for this setting: Enterococcus faecium, ATCC49624, 18 h.
[16] abbreviates: Enterococcus faecium, CL4931, 18 h.
Where [17] appears, read: Staphylococcus aureus, ATCC29213, 18 h.

Usually MIC stands for the smallest concentration in the dilution series that meets the test's criterion for growth inhibition.

Converted amounts (≈) assume the structure as drawn. Like-named read-outs stand apart in the source and are kept apart here. Where only a bound is given, the exact number is not on record here.

On to “6′-amino-3,4- dichloro- benzyloxylben zyl- vancomycin putrescine amide [TS0216]”, for which the MIC with E. faecalis ATCC 29212 (setting [1]) was 1.56 µg/mL; in the assay with E. faecalis CL4877 (setting [2]) it was 3.12 µg/mL; against E. faecium ATCC 49624 (setting [3]), 3.12 µg/mL; against E. faecium CL4931 (setting [4]) it was 6.25 µg/mL; against S. aureus ATCC29213 (setting [5]) it was 3.12 µg/mL; in the assay on E. coli BAS 849 it was 3.12 µg/mL. In the assay on S. aureus ATCC 33591 (setting [6]), this molecule came in with a minimal inhibitory concentration (MIC) of 3.12 µg/mL.

Regarding “6′-amino- chlorobiphenyl methyl- vancomycin putrescine amide [TS0217]”, the minimal inhibitory concentration (MIC) in the assay on E. faecalis ATCC 29212 (setting [1]) was found to be 1.56 µg/mL; in the assay on E. faecalis CL4877 (setting [2]), 6.25 µg/mL; against E. faecium ATCC 49624 (setting [3]) it was 1.56 µg/mL; against E. faecium CL4931 (setting [4]), 12.5 µg/mL; in the assay on S. aureus ATCC29213 (setting [5]), 1.56 µg/mL; against E. coli BAS 849 it was 3.12 µg/mL. In addition, the MIC in the assay with S. aureus ATCC 33591 (setting [6]) came out at 3.12 µg/mL.

As for “6′-azido-3,4- dichloro- benzyloxyben zyl- vancomycin putrescine amide [TS0220]”, the MIC amounted to 1.5625 µg/mL against E. faecalis ATCC 29212 (setting [1]); 1.5625 µg/mL against E. faecalis CL4877 (setting [2]); 0.7813 µg/mL against E. faecium ATCC 49624 (setting [3]); 3.1250 µg/mL with E. faecium CL4931 (setting [4]); 1.5625 µg/mL against S. aureus ATCC29213 (setting [5]); 3.1250 µg/mL in the assay with S. aureus ATCC 33591 (setting [6]).

For the molecule `CN[C@H](CC(C)C)C(=O)N[C@H]1C(=O)N[C@@H](CC(N)=O)C(=O)N[C@H]2C(=O)N[C@H]3C(=O)N[C@H](C(=O)N[C@H](C(=O)O)c4cc(O)cc(O)c4-c4cc3ccc4O)[C@H](O)c3ccc(c(Cl)c3)Oc3cc2cc(c3O[C@@H]2O[C@H](CO)[C@@H](O)[C@H](O)[C@H]2O[C@H]2C[C@](C)(N)[C@H](O)[C@H](C)O2)Oc2ccc(cc2Cl)[C@H]1O` [EXT0002, vancomycin, reference compound], the minimal inhibitory concentration (MIC) was 1.56 to 3.12 µg/mL in the assay on E. faecalis ATCC 29212 (setting [1]); above 25 µg/mL in the assay with E. faecalis CL4877 (setting [2]); 0.25 to 0.39 µg/mL in the assay with E. faecium ATCC 49624 (setting [3]); above 25 µg/mL against E. faecium CL4931 (setting [4]); 1.56 µg/mL (≈ 1.08 µM) with S. aureus ATCC29213 (setting [5]); 0.78 µg/mL (≈ 0.538 µM) with E. coli BAS 849. In the assay with S. aureus ATCC 33591 (setting [6]), this molecule registered an MIC of 0.78 to 3.12 µg/mL.

Regarding `CN[C@H](CC(C)C)C(=O)N[C@H]1C(=O)N[C@@H](CC(N)=O)C(=O)N[C@H]2C(=O)N[C@H]3C(=O)N[C@H](C(=O)N[C@@H](C(=O)NCCCCN)c4cc(O)cc(O)c4-c4cc3ccc4O)[C@H](O)c3ccc(c(Cl)c3)Oc3cc2cc(c3OC2OC(CO)C(O)C(O)C2OC2CC(C)(NCc3ccc(-c4ccc(Cl)cc4)cc3)C(O)C(C)O2)Oc2ccc(cc2Cl)[C@H]1O` (stereo partly drawn) [TS0221, chlorobipheny lmethyl- vancomycin putrescine amide], the minimal inhibitory concentration (MIC) with E. faecalis ATCC 29212 (setting [7]) came out at 1.56 µg/mL (≈ 0.908 µM); in the assay with E. faecalis CL4877 (setting [8]), 12.5 µg/mL (≈ 7.27 µM); in the assay on E. faecium ATCC 49624 (setting [9]), 0.25 µg/mL (≈ 0.145 µM); in the assay with E. faecium CL4931 (setting [10]), 6.25 µg/mL (≈ 3.63 µM); with S. aureus ATCC29213 (setting [11]), 1.56 µg/mL (≈ 0.908 µM); against S. aureus ATCC 33591 (setting [12]) it was 0.781 µg/mL (≈ 0.454 µM).

In the case of `CN[C@H](CC(C)C)C(=O)N[C@H]1C(=O)N[C@@H](CC(N)=O)C(=O)N[C@H]2C(=O)NC3C(=O)N[C@H](C(=O)N[C@@H](C(=O)NCCCCN)c4cc(O)cc(O)c4-c4cc3ccc4O)[C@H](O)c3ccc(c(Cl)c3)Oc3cc2cc(c3OC2OC(CN=[N+]=[N-])C(O)C(O)C2OC2CC(C)(NCc3ccc(-c4ccc(Cl)cc4)cc3)C(O)C(C)O2)Oc2ccc(cc2Cl)[C@H]1O` (stereo partly drawn) [TS0222], the MIC turned out to be 0.781 µg/mL (≈ 0.448 µM) in the assay with E. faecalis ATCC 29212 (setting [7]); 3.12 µg/mL (≈ 1.79 µM) with E. faecalis CL4877 (setting [8]); 0.25 µg/mL (≈ 0.143 µM) with E. faecium ATCC 49624 (setting [9]); 3.12 µg/mL (≈ 1.79 µM) with E. faecium CL4931 (setting [10]); 1.56 µg/mL (≈ 0.895 µM) in the assay with S. aureus ATCC29213 (setting [11]); 3.12 µg/mL (≈ 1.79 µM) against S. aureus ATCC 33591 (setting [12]).

For the molecule `CN[C@H](CC(C)C)C(=O)N[C@H]1C(=O)N[C@@H](CC(N)=O)C(=O)N[C@H]2C(=O)NC3C(=O)N[C@H](C(=O)N[C@@H](C(=O)NCCN)c4cc(O)cc(O)c4-c4cc3ccc4O)[C@H](O)c3ccc(c(Cl)c3)Oc3cc2cc(c3OC2OC(CN=[N+]=[N-])C(O)C(O)C2OC2CC(C)(NCc3ccc(OCc4ccc(Cl)c(Cl)c4)cc3)C(O)C(C)O2)Oc2ccc(cc2Cl)[C@H]1O` (stereo partly drawn) [TS0256, 6′-azido-3,4-dichlorobenzyl oxylbenzyl-vancomycin 2-aminoethyl amide], the MIC in the assay with E. faecalis ATCC 29212 (setting [13]) is 3.12 µg/mL (≈ 1.75 µM); in the assay on E. faecalis CL4877 (setting [14]) it was 1.56 µg/mL (≈ 0.876 µM); in the assay with E. faecium ATCC 49624 (setting [15]) it was 0.39 µg/mL (≈ 0.219 µM); in the assay on E. faecium CL4931 (setting [16]) it was 6.25 µg/mL (≈ 3.51 µM); with S. aureus ATCC29213 (setting [17]), 1.56 µg/mL (≈ 0.876 µM); with S. aureus ATCC 33591 (setting [12]) it was 1.56 µg/mL (≈ 0.876 µM).

In the case of `CN[C@H](CC(C)C)C(=O)N[C@H]1C(=O)N[C@@H](CC(N)=O)C(=O)N[C@H]2C(=O)NC3C(=O)N[C@H](C(=O)N[C@@H](C(=O)NCCN)c4cc(O)cc(O)c4-c4cc3ccc4O)[C@H](O)c3ccc(c(Cl)c3)Oc3cc2cc(c3OC2OC(CN)C(O)C(O)C2OC2CC(C)(NCc3ccc(OCc4ccc(Cl)c(Cl)c4)cc3)C(O)C(C)O2)Oc2ccc(cc2Cl)[C@H]1O` (stereo partly drawn) [TS0258, 6′-amino-3,4-dichlorobenzyl oxylbenzyl-vancomycin 2-aminoethyl amide], the MIC worked out at 12.5 µg/mL (≈ 7.12 µM) in the assay with E. faecalis ATCC 29212 (setting [13]); 25 µg/mL (≈ 14.2 µM) with E. faecalis CL4877 (setting [14]); 3.12 µg/mL (≈ 1.78 µM) with E. faecium ATCC 49624 (setting [15]); 25 µg/mL (≈ 14.2 µM) in the assay with E. faecium CL4931 (setting [16]); 25 µg/mL (≈ 14.2 µM) against S. aureus ATCC29213 (setting [17]); 12.5 µg/mL (≈ 7.12 µM) in the assay with S. aureus ATCC 33591 (setting [12]).

In the case of “N-methyl, N- chlorobiphenyl methyl-D- leucyl-6′-azido- chlorobiphenyl methyl vancomycin putrescine amide [TS0259]”, the MIC in the assay on E. faecalis ATCC 29212 (setting [1]) was 3.12 µg/mL; with E. faecalis CL4877 (setting [2]) it was 12.5 µg/mL; with E. faecium ATCC 49624 (setting [3]) it was 1.56 µg/mL; against E. faecium CL4931 (setting [4]) it was 6.25 µg/mL; in the assay on S. aureus ATCC29213 (setting [5]) it was 3.12 µg/mL; with S. aureus ATCC 33591 (setting [6]), 1.56 µg/mL.

These data come from patent US6699836B2 (priority 1999, dated 2004).
